Data set [1] can be described thus: In vitro stability in the plasma. It is filed as in vitro ADME. As to conditions: rat plasma, 10 μL ANA-TA9 PBS solution (0.1 mg/mL or 1 mg/mL) added to 90 μL plasma, 37 °C, methanol deproteinization, LC/MS, three experiments. As to the method: (§1) After the anesthetization of rats with an i.p. application of the anesthetic mixture, the cerebrospinal fluid (CSF) was collected by cisternal puncture, followed by the collection of whole blood from the polyethylene cannula inserted into the right femoral artery. The blood was heparinized and centrifuged at 15,000 rpm for 10 min at 4 °C, and the supernatant was collected as plasma.
(§2) ANA-TA9 was dissolved in PBS at a concentration of 0.1 mg/mL or 1 mg/mL. Immediately before the incubation, 5 μL or 10 μL of the ANA-TA9 solution was added to 45 μL or 90 μL of CSF or plasma, respectively. Similarly, 10 μL of the ANA-TA9 solution was added to 90 μL of whole blood. At predetermined times after the incubation at 37 °C, the samples were cooled by placing them on ice. Methanol (1 mL) was added to the plasma and whole blood for deproteinization. The mixtures were then vortexed and centrifuged at 15,000 rpm for 5 min at 4 °C. […] The concentrations of ANA-TA9 in the plasma and whole blood were measured by LC/MS. The ANA-TA9 concentrations were measured in the CSF samples by LC/MS without any treatments.
(§3) Chromatographic separation was performed using a C18 analytical column (TSKgel ODS 100V, 3 μm, 2.0 mm × 100 mm; TOSOH, Tokyo, Japan). […] ANA-TA9 eluting from the column was detected with mass spectrometry under the positive mode. […] The calibration curves of ANA-TA9 in the plasma and the brain were determined.

Data set [2] in a line: In vitro stability in the cerebrospinal fluid. The format is in vitro ADME. Particulars: cerebrospinal fluid (CSF), rat CSF, 37 °C, LC/MS without treatment, three experiments. As to the method:
as §1, §2, §3

A short description of another data set: in vivo. On the set-up: species or system male Wistar/ST rats. Particulars: male, Wistar/ST, rat, 2 mg. As to the method:
ANA-TA9 diluted in PBS was administered to the left nostril of male Wistar/ST rats (n = 3) at a dose of 2 mg (20 μL of 100 mg/mL). For the comparison, i.v. administration served as the control for i.n. administration. The same dose of ANA-TA9 ([…] of a 10 mg/mL PBS solution) was administered into the left femoral vein of 3 rats. CSF was collected 10 min after i.n. administration by cisternal puncture. An incision was made in the skin over the occipital bone, and the first layer of the muscle was cut. The sharp end of a 25-G needle connected to PE-50 tubing (1 m length) was carefully inserted into the cisterna magna. CSF was withdrawn into the tubing with a disposable syringe. Collection was terminated as soon as blood appeared in the tubing. CSF in the tubing was ejected into a ProteoSave SS 1.5 mL microtube (Sumitomo Bakelite Co., Ltd., Tokyo, Japan) and frozen at −40 °C. The CSF volumes ranged between 100 and 150 μL (n = 6). The plasma and brain concentrations of ANA-TA9 were determined by LC/MS, LC-20A, and LCMS-2020 (SHIMADZU, Kyoto, Japan). Briefly, 100 μL of the plasma were mixed with 1000 μL of methanol. […] To the dissected brain tissue, 100 μL of ice-cold purified water were added, and the mixture was homogenized under ice-cold conditions. To the homogenate, 4000 μL of ice-cold methanol were added. […] The residues were reconstituted with 100 μL of the mobile phase of the chromatography. In the preliminary study, it was confirmed that the effect of rapid degradation of ANA-TA9 on the assay could be excluded by the treatment on the blood and brain tissues mentioned above. Chromatographic separation was performed using a C18 analytical column (TSKgel ODS 100V, 3 μm, 2.0 mm × 100 mm; TOSOH, Tokyo, Japan). The mobile phase was acetonitrile/0.1% acetic acid (10/90), and the flow rate was 0.2 mL/min. ANA-TA9 eluting from the column was detected with mass spectrometry under the positive mode. Nitrogen gas was used for nebulization at a flow rate of 1.5 L/min. […] The calibration curves of ANA-TA9 in the plasma and the brain were determined.

Data set [3] is described as follows: Storage stability of ANA-TA9 at −40 °C (preliminary study). The format is physicochemical. Particulars: storage at −40 °C (plasma samples). As to the method: The rats were anesthetized through i.p. administration of a mixture of medetomidine (0.15 mg/kg body weight), midazolam (2 mg/kg body weight), and butorphanol (2.5 mg/kg body weight). The right femoral artery was cannulated with polyethylene tubing. ANA-TA9 was injected into the left femoral vein of 3 rats at a dose of 2 mg (200 μL of a 10 mg/mL PBS solution). Those 3 rats nasally received the same dose of ANA-TA9 (20 μL of a 100 mg/mL PBS solution) under anesthesia. For nasal administration, a micropipette was used. After i.n. administration, the animals were kept conscious in a rat cage (KN-326-III; Natsume, Tokyo, Japan) throughout the experiment after recovery from anesthesia. The PBS solution of ANA-TA9 (12 mg/mL) was infused intravenously for 10 min at a 25 µL/min flow rate. The infused dose was 3 mg/rat. At the appropriate time intervals after administration, blood samples were taken, heparinized, and immediately cooled down on ice, followed by centrifugation at 15,000 rpm for 5 min to obtain the plasma. The plasma samples were stored at −40 °C until the assay. In the preliminary study, it was confirmed that ANA-TA9 stored at −40 °C is stable for at least 2 weeks.

The values below come from article PMC8538057, “Direct Delivery of ANA-TA9, a Peptide Capable of Aβ Hydrolysis, to the Brain by Intranasal Administration” (Pharmaceutics, 2021).

Ends that are not written are not given here.

Take SKGQAYRMI [ANA-TA9]: in data set [1], the “concentration of ANA-TA9 in the plasma at 5 min after the start of the incubation” value is 20000 ng/mL. The remaining at 0.5 h in data set [2] (5 μL ANA-TA9 PBS solution (0.1 mg/mL or 1 mg/mL) added to 45 μL CSF, 30 min, read-out: CSF concentration remaining at 30 min after the start of the incubation) was determined as 74%. In data set [2] (5 μL ANA-TA9 PBS solution added to 45 μL CSF, 2 h, read-out: CSF concentration remaining at 2 h after the start of the incubation), the remaining at 2 h amounted to 46%. The level at 10 min was 72 ± 6 ng/mL in “in vivo” (inhaled or intranasal, CSF concentration 10 min after i.n. administration); 24 ± 5 ng/mL in “in vivo” (inhaled or intranasal, plasma concentration 10 min after i.n. administration); 10 ± 1 ng/mL in “in vivo” (iv, plasma concentration 10 min after i.v. administration). Besides, the “time for which ANA-TA9 stored at −40 °C is stable” value in data set [3] is listed as “at least 2 weeks”.
